For experiment [1], the target named is T1, p75^NTR receptors (PC12 cells) (Rattus norvegicus, UniProt P07174).
T1 construct: endogenous in cells; host or cells: PC12 cells
T1 sequence (P07174 30-425): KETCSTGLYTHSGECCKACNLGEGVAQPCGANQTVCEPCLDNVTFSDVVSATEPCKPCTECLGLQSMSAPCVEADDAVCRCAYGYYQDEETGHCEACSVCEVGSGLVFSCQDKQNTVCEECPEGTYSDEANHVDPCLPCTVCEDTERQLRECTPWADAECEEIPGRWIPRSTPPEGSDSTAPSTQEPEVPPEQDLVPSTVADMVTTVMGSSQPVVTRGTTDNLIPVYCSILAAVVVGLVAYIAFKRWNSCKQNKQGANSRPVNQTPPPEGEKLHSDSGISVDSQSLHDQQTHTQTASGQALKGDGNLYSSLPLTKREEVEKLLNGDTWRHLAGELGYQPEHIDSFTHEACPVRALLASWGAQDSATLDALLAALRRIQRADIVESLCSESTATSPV
T1 sequence (P23560 129-247 partner): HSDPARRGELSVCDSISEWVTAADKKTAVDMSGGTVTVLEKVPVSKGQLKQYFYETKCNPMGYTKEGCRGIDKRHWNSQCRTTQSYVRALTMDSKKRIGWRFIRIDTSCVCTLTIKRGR
Kind of experiment: Basic screening assay: binding of 125I-BDNF to PC12 cells. Conditions: read-out: BDNF Activity % Maximal Binding. The procedure:
(§1) The compounds were screened for effects on binding of ^125I-BDNF or ^125I-NGF to PC12 cells (p75^NTR receptors), and those that inhibited binding were further tested to determine the EC50 for this inhibition.
(§2) PC12 cells were cultured and prepared for binding assays as described in Example 1.
(§3) Lypophilized Peprotech human recombinant BDNF (Cedarlane Laboratories, Toronto, Canada, cat. # PE 450-02-10) was reconstituted under sterile conditions to 3.5 μM in sterile HKR/1%BSA, and either used immediately or stored in aliquots of 20 μl at −80° C. Immediately prior to use, a 15 nM (30×) solution of ^125I-BDNF or ^125I-NGF was prepared in HKR buffer, and was used at 0.5 nM final concentration.
(§4) Test Compounds were dissolved to 10 mM in DMSO, and those that were not initially soluble were warmed to 40-50° C. and vortexed. Those compounds that were still not in solution were reported as such. Compounds were then stored in this form at −20° C. until use. Immediately before experiments, 100 mM compounds were diluted to 10 mM in DMSO (1:10), followed by a further dilution to 1 mM (1:10) with distilled water, and a further dilution to 500 μM (1:1) with HKR.
(§5) Assays to determine maximum binding (Bmax), non-specific binding (NSB), and binding in the presence of each test compound (e.g., x, y) were performed at least in duplicate. In a total volume of 300 μL, 4×10^6 PC12 cells were incubated, rotating for 2 h at 4° C. with the following:
(§6) At the conclusion of the binding reaction, 100 μL aliquots of the reaction mixtures were carefully layered over 200 μL of a 10% glycerol solution in a 0.4 mL tube, and subjected to centrifugation in a microcentrifuge for 2 minutes at half maximum speed. The cell pellets containing the bound ^125I-BDNF or ^125I-NGF were then measured using a gamma counter. The mean values of the replicates were then calculated to determine the value for maximum binding (Bmax) and nonspecific binding (NSB), and binding in the presence of test compound at 50 μM (Bx). Specific binding (SB) was measured by subtracting the NSB from the Bmax.

Experiment [2] deals with p75^NTR receptors (PC12 cells). Kind of experiment: Basic screening assay: binding of 125I-NGF to PC12 cells. Conditions: test compound 50 μM, 0.5 nM 125I-NGF, PC12 cells, 2 h at 4° C., specific binding as percent of control. Here is the method:
as §1, §2
Lyophilized Serotec mouse 2.5S NGF (Cedarlane Laboratories, Toronto, Canada, cat. # PMP 04Z) was reconstituted under sterile conditions to 1 mg/mL (38 μM) in sterile 0.2% acetic acid, and 100 μL or 50 μL aliquots were stored frozen at −80° C.
as §3, §4, §5
as §6, with “Bmax. Specific binding in the presence of the test compound (SBx) was determined by subtracting the NSB from the Bx for each test compound; and each SBx was divided by SB and multiplied by 100 to give the specific binding in the presence of the compound as a percent of control specific binding.” for “Bmax.”

Setting [3] is: Table 1, test compound 50 μM, 0.5 nM 125I-BDNF, PC12 cells, 2 h at 4° C., specific binding as percent of control.

Molecules are shown by their SMILES. Like-named read-outs stand apart in the source and are kept apart here.

For `O=C1NC(=S)N/C1=C/c1ccc(-c2ccc([N+](=O)[O-])cc2Cl)o1` [Compound 47, 5-[5-(2-Chloro-4-nitrophenyl)furan-2-ylmethylene]-2-thioxo-imidazolidin-4-one], the activity at 50 µM in experiment [1] (setting [3]) fell in the range of 30 to 40%. Further, the “NGF Activity % Maximal Binding” value in experiment [2] (Table 1) was “* (50 < *)”.
`CC1=NN(c2ccc(F)cc2)C(=O)/C1=C\c1ccc(-c2ccc(C(=O)O)cc2)o1` [Compound 49, 4-{5-[1-(4-Fluorophenyl)-3-methyl-5-oxo-1,5-dihydro-pyrazol-4-ylidenemethyl]furan-2-yl}benzoic acid]: the activity at 50 µM in experiment [1] (setting [3]) fell in the range of 30 to 40%. For the same molecule, in experiment [2] (Table 1), the “NGF Activity % Maximal Binding” value was “* (50 < *)”.
On to `COC(=O)CN1C(=O)S/C(=C\c2ccc(-c3ccc([N+](=O)[O-])cc3)o2)C1=O` [Compound 50, {5-[5-(4-Nitrophenyl)furan-2-ylmethylene]-2,4-dioxo-thiazolidin-3-yl}-acetic acid methyl ester], for which the activity at 50 µM in experiment [1] (setting [3]) fell in the range of 30 to 40%. Also, the “NGF Activity % Maximal Binding” value in experiment [2] (Table 1) was “* (50 < *)”.
The matching figures for `O=C1NC(=S)S/C1=C/c1ccc(-c2ccc(Cl)c([N+](=O)[O-])c2)o1` [Compound 51, 5-[5-(4-Chloro-3-nitrophenyl)furan-2-ylmethylene]-2-thioxo-thiazolidin-4-one]: 30 to 40% and “* (50 < *)”.
`CCCC(C(=O)O)N1C(=O)C(=Cc2ccc(-c3ccc([N+](=O)[O-])cc3)o2)SC1=S` (centres unmarked) [Compound 52, 2-{5-[5-(4-Nitrophenyl)furan-2-ylmethylene]-4-oxo-2-thioxo-thiazolidin-3-yl}-pentanoic acid]: the activity at 50 µM in experiment [1] (setting [3]) lay in the range of 30 to 40%. The “NGF Activity % Maximal Binding” value in experiment [2] (Table 1) was “* (50 < *)”.
Consider `Cc1cc([N+](=O)[O-])ccc1-c1ccc(/C=C2/C(=O)NC(=O)N(C)C2=O)o1` [Compound 53, 1-Methyl-5-[5-(2-methyl-4-nitrophenyl)furan-2-ylmethylene]-pyrimidine-2,4,6-trione], for which the activity at 50 µM in experiment [1] lay within 30 to 40%. The “NGF Activity % Maximal Binding” value in experiment [2] (Table 1) was “* (50 < *)”.
In the case of `CCOC(=O)c1ccc(-c2ccc(/C=C3/NC(=O)N(c4ccccc4)C3=O)o2)cc1` [Compound 54, 4-[5-(2,5-Dioxo-1-phenyl-imidazolidin-4-ylidenemethyl)furan-2-yl]benzoic acid ethyl ester], the activity at 50 µM in experiment [1] (setting [3]) was in the range of 30 to 40%. Further, the “NGF Activity % Maximal Binding” value in experiment [2] (Table 1) is “* (50 < *)”.
The matching figures for `CCN1C(=O)/C(=C/c2ccc(-c3ccc([N+](=O)[O-])cc3)o2)NC1=S` [Compound 55, 3-Ethyl-5-[5-(4-nitrophenyl)furan-2-ylmethylene]-2-thioxo-imidazolidin-4-one]: 30 to 40% and “* (50 < *)”.
Consider `COc1cc([N+](=O)[O-])ccc1-c1ccc(C=C2C(=O)ON=C2c2ccccc2)o1` [Compound 56, 4-[5-(2-Methoxy-4-nitrophenyl)furan-2-ylmethylene]-3-phenyl-4H-isoxazol-5-one], for which the activity at 50 µM in experiment [1] (setting [3]) is 40 to 50%. Further, in experiment [2] (Table 1), the “NGF Activity % Maximal Binding” value is recorded as “* (50 < *)”.
On to `CCOC(=O)c1ccc(N2NC(=O)/C(=C/c3ccc(-c4cccc(C(=O)O)c4)o3)C2=O)cc1` [Compound 57, 3-{5-[3,5-Dioxo-1-phenyl-(4-ethyl ester)-pyrazolidin-4-ylidenemethyl]furan-2-yl}benzoic acid], for which the activity at 50 µM in experiment [1] (setting [3]) lay within 40 to 50%. Besides, the “NGF Activity % Maximal Binding” value in experiment [2] (Table 1) is “* (50 < *)”.
Take `CCN1C(=O)S/C(=C/c2ccc(-c3ccc([N+](=O)[O-])cc3OC)o2)C1=O` [Compound 58, 3-Ethyl-5-[5-(2-methoxy-4-nitrophenyl)furan-2-ylmethylene]-thiazolidine-2,4-dione]: the activity at 50 µM in experiment [1] (setting [3]) lay in the range of 40 to 50%. In addition, the “NGF Activity % Maximal Binding” value in experiment [2] (Table 1) is listed as “* (50 < *)”.
On to `O=C1C(=Cc2ccc(-c3ccc([N+](=O)[O-])cc3)o2)SC(=S)N1Cc1cccnc1` [Compound 59, 5-[5-(4-Nitrophenyl)furan-2-ylmethylene]-3-pyridin-3-ylmethyl-2-thioxo-thiazolidin-4-one], for which the activity at 50 µM in experiment [1] (setting [3]) fell in the range of 40 to 50%. The “NGF Activity % Maximal Binding” value in experiment [2] (Table 1) was “* (50 < *)”.
For `COc1cc([N+](=O)[O-])ccc1-c1ccc(/C=C2/SC(=S)N(C)C2=O)o1` [Compound 60, 5-[5-(2-Methoxy-4-nitrophenyl)furan-2-ylmethylene]-3-methyl-2-thioxo-thiazolidin-4-one], the activity at 50 µM in experiment [1] (setting [3]) lay in the range of 40 to 50%. Also, the “NGF Activity % Maximal Binding” value in experiment [2] (Table 1) is “* (50 < *)”.
Turning to `CCOC(=O)CN1C(=O)S/C(=C\c2ccc(-c3ccc([N+](=O)[O-])cc3C)o2)C1=O` [Compound 61, {5-[5-(2-Methyl-4-nitrophenyl)furan-2-ylmethylene]-2,4-dioxo-thiazolidin-3-yl}-acetic acid ethyl ester], the activity at 50 µM in experiment [1] (setting [3]) was in the range of 40 to 50%. Further, the “NGF Activity % Maximal Binding” value in experiment [2] (Table 1) was “* (50 < *)”.
For the molecule `CCCSC1=NC(=Cc2ccc(-c3ccc([N+](=O)[O-])cc3Cl)o2)C(=O)S1` [Compound 62, 4-[5-(2-Chloro-4-nitrophenyl)furan-2-ylmethylene]-2-propylsulfanyl-4H-thiazol-5-one], in experiment [1] (setting [3]), the activity at 50 µM was 40 to 50%. In addition, in experiment [2] (Table 1), the “NGF Activity % Maximal Binding” value is reported as “* (50 < *)”.
`CCOC(=O)c1ccc(-c2ccc(/C=C3/C(=O)NN(c4cccc(C)c4)C3=O)o2)cc1` [Compound 63, 4-[5-(3,5-Dioxo-1-m-tolyl-pyrazolidin-4-ylidenemethyl)furan-2-yl]benzoic acid ethyl ester]: in experiment [1] (setting [3]), the activity at 50 µM fell in the range of 40 to 50%. In addition, the “NGF Activity % Maximal Binding” value in experiment [2] (Table 1) is listed as “* (50 < *)”.
Turning to `COC(=O)C(C)N1C(=O)S/C(=C/c2ccc(-c3ccc(C)c([N+](=O)[O-])c3)o2)C1=O` (centres unmarked) [Compound 64, 2-{5-[5-(4-Methyl-3-nitrophenyl)furan-2-ylmethylene]-2,4-dioxo-thiazolidin-3-yl}-propionic acid methyl ester], in experiment [1] (setting [3]), the activity at 50 µM was in the range of 40 to 50%. In addition, the “NGF Activity % Maximal Binding” value in experiment [2] (Table 1) was “* (50 < *)”.
`Cc1cc(C(=O)O)ccc1-c1ccc(/C=C2\C(=O)NC(=O)N(c3ccccc3F)C2=O)o1` [Compound 66, 4-{5-[1-(2-Fluorophenyl)-2,4,6-trioxo-tetrahydro-pyrimidin-5-ylidenemethyl]furan-2-yl}-3-methylbenzoic acid]: the activity at 50 µM in experiment [1] is 0 to 10%. In experiment [2] (Table 2), the “NGF Activity % Maximal Binding” value is listed as “XXX (20 < XXX < 30)”.
Take `COC(=O)CN1C(=O)S/C(=C/c2ccc(-c3ccc(C(=O)O)c(Cl)c3)o2)C1=O` [Compound 67, 2-Chloro-4-[5-(3-methoxycarbonylmethyl-2,4-dioxo-thiazolidin-5-ylidenemethyl)furan-2-yl]benzoic acid]: the activity at 50 µM in experiment [1] (Table 2, test compound 50 μM, 0.5 nM 125I-BDNF, PC12 cells, 2 h at 4° C., specific binding as percent of control) was 0 to 10%. Further, the “NGF Activity % Maximal Binding” value in experiment [2] (Table 2) is listed as “XX (30 < XX < 40)”.

These data come from patent publication US20050282840A1, “Methods of modulating neurotrophin-mediated activity” (PainCeptor Pharma Corporation, priority 2004, published 2005).
